Experiments:
[1] = test system: Wnt/β-catenin signaling (β-catenin activity) in HEK293 cell line; experiment: Cell-based Wnt agonist screening, TCF luciferase reporter, HEK293 (TCF-FL); parameters: species or system human; settings: Homo sapiens, HEK293, 24 h, % of LiCl (20 mM), 24 h, read-out: Max. Activity (%); for Emax at 30 µM: Conc. 30 μM; for Emax at 120 µM: Conc. 120 μM; for Emax at 15 µM: Conc. 15 μM
Description: (§1) In order to measure the in vitro activity of compounds of the present invention, two human cancer cell lines, HEK293 and SW480, which have intact Wnt signaling and show APC gene mutation in the Wnt signaling pathway, respectively, were used.
(§2) For evaluating the activity of wnt/β-catenin signaling in the cancer cell lines, gene as illustrated in FIG. 1 having β-catenin-binding sites of the Tcf/Lef transcriptional control protein (5 sites of TCF, 5X TCF) and having a fire fly luficerase as a marker protein ascertainable the activity of 5X TCF was introduced into the cells. Treatment with G418 led monoclones of the cell lines, in which the genes were permanently expressed, so as to construct a cell-based Wnt agonist screening system. […] For comparison with the activity of the isoxazole derivatives as Wnt agonists, lithium chloride (LiCl), acting as a positive control for the cell-based Wnt agonist screening system, was used to determine the expression level of the luciferase, and the results are shown in FIG. 3.
(§3) The cell lines, in which a cell-based Wnt agonist screening system was constructed, were cultured in RPMI 1640 media supplemented with penicillin-streptomycin (100 Units/mL) and heat-inactivated 5% fetal bovine serum under standard culture conditions (5% CO2, 37° C., 100% relative humidity). […] The suspension was diluted with the same medium to adjust the cell count to 8,000˜15,000 cells per well and was moved then in a 96-well microtiter plate. After being incubated for 24 hrs, the cells were treated with various concentrations of the isoxazole derivatives synthesized in Preparation Examples. Incubation for an additional 24 hours was followed by the quantitative analysis of luciferase activity using a Luciferase Assay kit (Promega, U.S.A.) according to the protocol described in the manual provided by the manufacturer. Data on the activities of the isoxazole derivatives thus synthesized are given in Tables 34 to 43, and are expressed as percentages relative to the activity of the positive control LiCl (20 mM), a well-known agonist of Wnt signaling.

[2] = test system: Wnt/β-catenin signaling (β-catenin activity) in SW480 cell line; experiment: Cell-based Wnt agonist screening, TCF luciferase reporter, SW480 (TCF-FL); parameters: species or system human; settings: Homo sapiens, % of LiCl (20 mM), 24 h, read-out: Max. Activity (%); for Emax at 30 µM: Con. 30 μM; for Emax at 60 µM: Con. 60 μM; for Emax at 120 µM: Con. 120 μM
Description: as §1, §2, §3

Which results are given for `COC(=O)c1cn(CCCNC(=O)c2cc(-c3ccco3)on2)cn1` [Derivative (58), 1-{3-[(5-furan-2-yl-isoxazole-3-carbonyl)-amino]-propyl}-1H-imidazole-4-carboxylic acid methyl ester]?
Emax at 30 µM [1]: < 20%; Emax at 30 µM [2]: 270%

Which results are given for `O=C(NCCc1cccc(F)c1)c1cc(-c2ccco2)on1` [Derivative (17), 5-furan-2-yl-isoxazole-3-carboxylic acid [2-(3-fluoro-phenyl)-ethyl]-amide]?
Emax at 30 µM [1]: < 20%; Emax at 60 µM [2]: 200%

Which results are given for `O=C(NCCCn1ccnc1)c1cc(-c2ccccc2F)on1` [Derivative (81), 5-(2-fluoro-phenyl)-isoxazole-3-carboxylic acid (3-imidazol-1-yl-propyl)-amide]?
Emax at 120 µM [1]: 869%; Emax at 120 µM [2]: 869%

`O=C(NCCc1ccc([N+](=O)[O-])cc1)c1cc(-c2ccco2)on1` [Derivative (27), 5-furan-2-yl-isoxazole-3-carboxylic acid [2-(4-nitro-phenyl)-ethyl]-amide] was tested. Which Emax at 30 µM [1] did it give?
The Emax at 30 µM was less than 20%.

And the Emax at 30 µM [2]?
The Emax at 30 µM was less than 20%.

What does the source list for `O=C(NCCn1ccnc1)c1cc(-c2ccccc2)on1` [Derivative (69), 5-phenyl-isoxazole-3-carboxylic acid (2-imidazol-1-yl-ethyl)-amide]?
Emax at 30 µM [1]: < 20%; Emax at 30 µM [2]: < 20%

`O=C(NCCc1cccc(O)c1)c1cc(-c2ccco2)on1` [Derivative (23), 5-furan-2-yl-isoxazole-3-carboxylic acid [2-(3-hydroxy-phenyl)-ethyl]-amide] was tested. Which Emax at 30 µM [1] did it give?
Its Emax at 30 µM is less than 20%.

And the Emax at 30 µM [2]?
The Emax at 30 µM was less than 20%.

With `O=C(NCCCCn1ccnc1)c1cc(-c2ccco2)on1` [Derivative (34), 5-furan-2-yl-isoxazole-3-carboxylic acid (4-imidazol-1-yl-butyl)-amide] as the compound, how does the Emax at 120 µM [1] read?
Its Emax at 120 µM is 44%.

What about the Emax at 120 µM [2] of the same compound?
Its Emax at 120 µM is 120%.

For `O=C(NCCCn1ccnc1)c1cc(-c2ccccn2)on1` [Derivative (75), 5-pyridin-2-yl-isoxazole-3-carboxylic acid (3-imidazol-1-yl-propyl)-amide], which Emax at 30 µM [1] is on record?
The Emax at 30 µM was less than 20%.

And the Emax at 30 µM [2]?
The Emax at 30 µM was less than 20%.

For `O=C(Nc1ccccc1O)c1cc(-c2ccco2)on1` [Derivative (2), 5-furan-2-yl-isoxazole-3-carboxylic acid (2-hydroxy-phenyl)-amide], which Emax at 30 µM [1] is on record?
Its Emax at 30 µM is less than 20%.

And the Emax at 30 µM [2]?
The Emax at 30 µM was less than 20%.

Which results are given for `Cc1cn(CCCNC(=O)c2cc(-c3ccco3)on2)cn1` [Derivative (56), 5-furan-2-yl-isoxazole-3-carboxylic acid [3-(4-methyl-imidazol-1-yl)-propyl]-amide]?
Emax at 15 µM [1]: 58%; Emax at 30 µM [1]: < 20%; Emax at 600 µM ([2]; Con. 600 μM): 650%

With `O=C(NCc1ccncc1)c1cc(-c2ccco2)on1` [Derivative (9), 5-furan-2-yl-isoxazole-3-carboxylic acid (pyridin-4-ylmethyl)-amide] as the compound, how does the Emax at 30 µM [1] read?
Its Emax at 30 µM is less than 20%.

What about the Emax at 30 µM [2] of the same compound?
Its Emax at 30 µM is less than 20%.

With `O=C(NCCCn1ccnc1)c1cc(-c2ccccc2)on1` [Derivative (68), 5-phenyl-isoxazole-3-carboxylic acid (3-imidazol-1-yl-propyl)-amide] as the compound, how does the Emax at 30 µM [1] read?
The Emax at 30 µM was 47%.

And the Emax at 60 µM [2]?
Its Emax at 60 µM is 486%.

What does the source list for `O=C(NCc1ccccn1)c1cc(-c2ccco2)on1` [Derivative (7), 5-furan-2-yl-isoxazole-3-carboxylic acid (pyridin-2-ylmethyl)-amide]?
Emax at 30 µM [1]: < 20%; Emax at 30 µM [2]: < 20%

For `O=C(NCCCn1cnc(Br)c1)c1cc(-c2ccco2)on1` [Derivative (60), 5-furan-2-yl-isoxazole-3-carboxylic acid [3-(4-bromo-imidazol-1-yl)-propyl]-amide], which Emax at 30 µM [1] is on record?
The Emax at 30 µM was less than 20%.

And the Emax at 30 µM [2]?
The Emax at 30 µM was 196%.

How did the Emax at 30 µM [1] turn out when `O=C(O)c1cn(CCCNC(=O)c2cc(-c3ccco3)on2)cn1` [Derivative (59), 1-{3-[(5-furan-2-yl-isoxazole-3-carbonyl)-amino]-propyl}-1H-imidazole-4-carboxylic acid] was run?
Its Emax at 30 µM is less than 20%.

What about the Emax at 60 µM [2] of the same compound?
Its Emax at 60 µM is 592%.

What does the source list for `O=C(NCCCn1ccnc1)c1cc(-c2cccnc2)on1` [Derivative (76), 5-pyridin-3-yl-isoxazole-3-carboxylic acid (3-imidazol-1-yl-propyl)-amide]?
Emax at 30 µM [1]: < 20%; Emax at 30 µM [2]: < 20%

Which results are given for `Nc1cccc(-c2cc(C(=O)NCCCn3ccnc3)no2)c1` [Derivative (119), 5-(3-amino-phenyl)-isoxazole-3-carboxylic acid (3-imidazol-1-yl-propyl)-amide]?
Emax at 30 µM [1]: < 20%; Emax at 120 µM [1]: 43%; Emax at 120 µM [2]: 43%

`O=C(NCCCn1ccnc1)c1cc(-c2ccncc2)on1` [Derivative (77), 5-pyridin-4-yl-isoxazole-3-carboxylic acid (3-imidazol-1-yl-propyl)-amide] was tested. Which Emax at 30 µM [1] did it give?
Its Emax at 30 µM is less than 20%.

What about the Emax at 30 µM [2] of the same compound?
The Emax at 30 µM was less than 20%.

Which Emax at 30 µM [1] does the source give for `O=C(NCCc1cccnc1)c1cc(-c2cccc(O)c2)on1` [Derivative (110), 5-(3-hydroxy-phenyl)-isoxazole-3-carboxylic acid (2-pyridin-3-yl-ethyl)-amide] here?
The Emax at 30 µM was less than 20%.

And the Emax at 30 µM [2]?
The Emax at 30 µM was less than 20%.

Which results are given for `CCc1c(C(=O)NCCCn2ccnc2)noc1-c1ccco1` [Derivative (66), 4-ethyl-5-furan-2-yl-isoxazole-3-carboxylic acid (3-imidazol-1-yl-propyl)-amide]?
Emax at 30 µM [1]: < 20%; Emax at 30 µM [2]: < 20%

`COc1ccccc1-c1cc(C(=O)NCCCn2ccnc2)no1` [Derivative (99), 5-(2-methoxy-phenyl)-isoxazole-3-carboxylic acid (3-imidazol-1-yl-propyl)-amide] was tested. Which Emax at 120 µM [1] did it give?
Its Emax at 120 µM is 37%.

And the Emax at 120 µM [2]?
The Emax at 120 µM was 37%.

Which Emax at 30 µM [1] does the source give for `COc1cccc(CCNC(=O)c2cc(-c3ccco3)on2)c1` [Derivative (20), 5-furan-2-yl-isoxazole-3-carboxylic acid [2-(3-methoxy-phenyl)-ethyl]-amide] here?
The Emax at 30 µM was less than 20%.

What about the Emax at 60 µM [2] of the same compound?
The Emax at 60 µM was 528%.

Which results are given for `O=C(NCc1cccnc1)c1cc(-c2ccco2)on1` [Derivative (8), 5-furan-2-yl-isoxazole-3-carboxylic acid (pyridin-3-ylmethyl)-amide]?
Emax at 30 µM [1]: < 20%; Emax at 30 µM [2]: < 20%

What does the source list for `O=C(NCCCn1ncnn1)c1cc(-c2ccco2)on1` [Derivative (53), 5-furan-2-yl-isoxazole-3-carboxylic acid (3-tetrazol-2-yl-propyl)-amide]?
Emax at 30 µM [1]: < 20%; Emax at 30 µM [2]: < 20%

With `O=C(NCCCn1cncn1)c1cc(-c2ccc(F)cc2)on1` [Derivative (84), 5-(4-fluoro-phenyl)-isoxazole-3-carboxylic acid (3-[1,2,4]triazol-1-yl-propyl)-amide] as the compound, how does the Emax at 30 µM [1] read?
Its Emax at 30 µM is 907%.

And the Emax at 30 µM [2]?
Its Emax at 30 µM is 907%.

What does the source list for `Nc1ccccc1NC(=O)c1cc(-c2ccco2)on1` [Derivative (3), 5-furan-2-yl-isoxazole-3-carboxylic acid (2-amino-phenyl)-amide]?
Emax at 30 µM [1]: < 20%; Emax at 40 µM ([2]; Con. 40 μM): 331%

What does the source list for `O=C(NCCc1ccncc1)c1cc(-c2cccc(O)c2)on1` [Derivative (108), 5-(3-hydroxy-phenyl)-isoxazole-3-carboxylic acid (2-pyridin-4-yl-ethyl)-amide]?
Emax at 15 µM [1]: 600%; Emax at 30 µM [1]: < 20%; Emax at 15 µM ([2]; Con. 15 μM): 600%

Which Emax at 120 µM [1] does the source give for `COc1cccc(-c2cc(C(=O)NCCCn3ccnc3)no2)c1` [Derivative (100), 5-(3-methoxy-phenyl)-isoxazole-3-carboxylic acid (3-imidazol-1-yl-propyl)-amide] here?
Its Emax at 120 µM is 59%.

And the Emax at 120 µM [2]?
The Emax at 120 µM was 59%.

What does the source list for `Cc1c(C(=O)NCCCn2ccnc2)noc1-c1ccco1` [Derivative (65), 5-furan-2-yl-4-methyl-isoxazole-3-carboxylic acid (3-imidazol-1-yl-propyl)-amide]?
Emax at 30 µM [1]: < 20%; Emax at 30 µM [2]: < 20%

Which results are given for `O=C(NCCn1ccnn1)c1cc(-c2ccc(F)cc2)on1` [Derivative (90), 5-(4-fluoro-phenyl)-isoxazole-3-carboxylic acid (2-[1,2,3]triazol-1-yl-ethyl)-amide]?
Emax at 30 µM [1]: 92%; Emax at 30 µM [2]: 92%

For `Cc1cn(CCNC(=O)c2cc(-c3ccco3)on2)cn1` [Derivative (37), 5-furan-2-yl-isoxazole-3-carboxylic acid [2-(4-methyl-imidazol-1-yl)-ethyl]-amide], which Emax at 120 µM [1] is on record?
Its Emax at 120 µM is 44%.

And the Emax at 120 µM [2]?
Its Emax at 120 µM is 296%.
